According to patent US11866430B2, “Naphthyridinone compounds useful as T cell activators” (priority 2018, dated 2024):
Read-outs that look alike come from different tables or passages of the source.

Tests used:
[1] = tested on: Jurkat AP1-luciferase Reporter; test: DGK AP1-Reporter Assay; assay type: cell-based
Procedure: The Jurkat AP1-luciferase Reporter was generated using the Cignal Lenti AP1 Reporter (luc) Kit from SABiosciences (CLS-011L).
The sample size was 30 nl per well; and one destination plate per source plate. The cell suspensions were prepared by transferring 40 mL cells (2×20 mL) to clean 50 mL conical tubes. The cells were concentrated by centrifugation (1200 rpm; 5 mins; ambient temperature). […] The cell plates were incubated for 20 minutes at 37° C., and 5% CO2.
During the incubation, anti-CD3 antibody (αCD3) solutions were prepared by mixing 3 μl αCD3 (1.3 mg/mL) with 10 mL medium [final conc=0.4 μg/mL]. Next, 1.5 μl αCD3 (1.3 mg/mL) was mixed with 0.5 mL medium [final conc=4 μg/mL]. After 20 minutes, 10 μl medium was added to all wells in column 1, wells A to M, and 10 μl αCD3 (4 μg/mL) per well was added in column 1, rows N to P for reference. Then using a multi-channel pipette, 10 μl αCD3 (0.4 μg/mL) per well was added. The αCD3 stimulated +/− compound-treated cells were incubated at 37° C., 5% CO2 for 6 hours.
During this incubation period. Steady-Glo (Promega E2520) reagent was slowly thawed on to ambient temperature. Next, 20 μl Steady-Glo reagent per well was added using a multi-drop Combi-dispenser. Bubbles were removed by centrifugation (2000 rpm, ambient temperature, 10 sees). The cells were incubated at room temperature for 5 minutes. Samples were characterized by measuring the Relative Light Units (RLU) with an using Envision Plate Reader Instrument on a luminescence protocol.

human DGKζ [2] = biological target: T1, human DGKζ (Homo sapiens (Human), UniProt Q13574); test: DGKζ assay (detergent/lipid micelle substrate); assay type: biochemical; settings: detergent/lipid micelle substrate; read-out: DGKζ IC50
In short: (§1)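 Full-length human DGKα or DGKζ (C-terminal His tag, Sf9-expressed; 20 nM 4× stock) was preincubated 10 min at room temperature with PS/DAG octyl glucoside micelles in MOPS pH 7.5 buffer with MgCl2, CaCl2 and DTT. It was then started with ATP (300 uM addition) and run for 1 hr, with ADP-Glo luminescence read-out.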

human DGKα [3] = biological target: T2, human DGKα (Homo sapiens (Human), UniProt P23743); test: biochemical
In short: as §1

naïve human CD8 T cells [4] = test: CellTiter-Glo CD8 T Cell Proliferation Assay; assay type: cell-based; settings: Homo sapiens, T-cell
Procedure: Frozen naïve human CD8 T cells were thawed in RPMI+10% FBS, incubated for 2 h in 37° C., and counted. The 384-well tissue culture plate was coated overnight at 4° C. with 20 μl anti-human CD3 at 0.1 μg/mL in plain RPMI, which was removed off the plate before 20 k/40 μl CD8 T cells with 0.5 μg/mL soluble anti-human CD28 were added to each well. The compounds were echoed to the cell plate immediately after the cells were plated. After 72 h incubation at 37° C. incubator, 10 μl CellTiter-glo reagent (Promega catalog number G7570) was added to each well. The plate was vigorously shaken for 5 mins, incubated at room temperature for another 15 mins and read on Envision for CD8 T cell proliferation. In analysis, 0.1 μg/mL anti-CD3 and 0.5 μg/mL anti-CD28 stimulated CD8 T cell signal was background.

human DGKζ [5] = biological target: T1, human DGKζ; test: DGKζ LIPGLO assay (extruded liposome substrate); assay type: biochemical; settings: extruded liposome substrate; read-out: DGKζ LIPGLO IC50
In short: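 Recombinant DGKζ (Sf9-expressed, Ni/SEC/SP-purified) preincubated 10 min with extruded 100 nm PC/DAG/PS liposomes in 50 mM MOPS pH 7.5, 100 mM NaCl, 10 mM MgCl2, 1 μM CaCl2, 1 mM DTT. Started with 300 uM ATP solution (stock, pre-addition); 1 hr reaction. ADP-Glo luminescence; IC50 from 11 concentrations.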

human DGKα [6] = biological target: T2, human DGKα; test: DGKα LIPGLO assay (extruded liposome substrate); assay type: biochemical
In short: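 Human full-length DGKα, His-tagged and produced in Sf9 cells, assayed at 20 nM (4× stock) on extruded liposomes of PS, 0.25 mM DAG and 2.75 mM PC, preincubated 10 min. Reaction started with 300 μM ATP (stock) and ran 1 h in MOPS pH 7.5/MgCl2/CaCl2/DTT buffer.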

[7] = tested on: OT-1 antigen-specific CD8+ T cells with MC38 tumor cells; test: Murine Cytotoxic T Lymphocyte Assay (IFN-γ); assay type: cell-based, mouse
From the text: An antigen-specific cytolytic T-cell (CTL) assay was developed to evaluate functionally the ability of DGKα and DGKζ inhibitors to enhance effector T cell mediated tumor cell killing activity. CD8+ T-cells isolated from the OT-1 transgenic mouse recognize antigen presenting cells, MC38, that present the ovalbumin derived peptide […]. Recognition of the cognate antigen initiates the cytolytic activity of the OT-1 antigen-specific CD8+ T cells.
Functional CTL cells were generated as follows: OT-1 splenocytes from 8-12 week old mice were isolated and expanded in the presence of the […] peptide at 1 μg/mL and mIL2 at 10 U/mL. After three days, fresh media with mIL2 U/mL was added. On day 5 of the expansion, the CD8+ T cells were isolated and ready for use. Activated CTL cells may be stored frozen for 6 months. […] The cells were washed (3×) with fresh media to remove excess peptide. Finally, CTL cells that were pretreated with DGK inhibitors for 1 hour in a 96-well U bottom plate were combined with the antigen loaded MC38 tumor cells at a 1:10 ratio. The cells were then spun at 700 rpm for 5 min and placed in an incubator overnight at 37° C. After 24 hours, the supernatant was collected for analysis of IFN-γ cytokine levels by AlphaLisa purchased from Perkin Elmer.

[8] = tested on: pre-activated CD4 T cells and Raji cells; test: Raji CD4 T Cell IL2 Assay; assay type: cell-based; settings: Homo sapiens, Raji
naïve human CD8 T cells [9] = test: cells; settings: Homo sapiens, T-cell, read-out: HuCD8 INFG Normalized EC50, anti-CD3 plus anti-CD28 as baseline; 3 μM Example 40 co-stimulation as 100% activation
Procedure: Frozen naïve human CD8 T cells were thawed in ATM-V media, incubated for 2 h in 37° C., and counted. The 384-well tissue culture plate was coated overnight at 4° C. with 20 μl anti-human CD3 at 0.05 μg/mL in PBS, which was removed off the plate before 40,000 cells per 40 microliters CD8 T cells with 0.1 μg/mL soluble anti-human CD28 were added to each well. The compounds were transferred using an Echo liquid handler to the cell plate immediately after the cells were plated. After 20 h incubation at 37° C. incubator, 3 microliters per well supernatants transferred into a new 384-well white assay plate for cytokine measurement.
Interferon-γ (IFN-γ) was quantitated using the AlphaLISA kit (Cat #AL217) as described by the manufacturer manual (Perkin Elmer). The counts from each well were converted to IFN-γ concentration […].

[10] = Homo sapiens, Jurkat, read-out: API-Luciferase Reporter IC50, Table 3
[11] = detergent/lipid micelle substrate, read-out: DGKα IC50
[12] = Homo sapiens, Jurkat, read-out: DGKAP1 Lucif Reporter IC50, Table 4
[13] = DGKα IC50, detergent/lipid micelle substrate
[14] = CellTiter-Glo CD8 T cell proliferation, normalized, read-out: CD8 GLO normalized EC50
[15] = read-out: API-Luciferase Reporter IC50, Table 3
[16] = read-out: msCTL INF-γ IC50, murine CTL IFN-γ (table title reads INF-γ Whole Blood Normalized Agonist EC50)
[17] = Mus musculus, MC-38, read-out: msCTL INF-γ IC50, murine CTL IFN-γ (table title reads INF-γ Whole Blood Normalized Agonist EC50)

T2 sequence (P23743 other isoform, or with tags, fused parts or gaps): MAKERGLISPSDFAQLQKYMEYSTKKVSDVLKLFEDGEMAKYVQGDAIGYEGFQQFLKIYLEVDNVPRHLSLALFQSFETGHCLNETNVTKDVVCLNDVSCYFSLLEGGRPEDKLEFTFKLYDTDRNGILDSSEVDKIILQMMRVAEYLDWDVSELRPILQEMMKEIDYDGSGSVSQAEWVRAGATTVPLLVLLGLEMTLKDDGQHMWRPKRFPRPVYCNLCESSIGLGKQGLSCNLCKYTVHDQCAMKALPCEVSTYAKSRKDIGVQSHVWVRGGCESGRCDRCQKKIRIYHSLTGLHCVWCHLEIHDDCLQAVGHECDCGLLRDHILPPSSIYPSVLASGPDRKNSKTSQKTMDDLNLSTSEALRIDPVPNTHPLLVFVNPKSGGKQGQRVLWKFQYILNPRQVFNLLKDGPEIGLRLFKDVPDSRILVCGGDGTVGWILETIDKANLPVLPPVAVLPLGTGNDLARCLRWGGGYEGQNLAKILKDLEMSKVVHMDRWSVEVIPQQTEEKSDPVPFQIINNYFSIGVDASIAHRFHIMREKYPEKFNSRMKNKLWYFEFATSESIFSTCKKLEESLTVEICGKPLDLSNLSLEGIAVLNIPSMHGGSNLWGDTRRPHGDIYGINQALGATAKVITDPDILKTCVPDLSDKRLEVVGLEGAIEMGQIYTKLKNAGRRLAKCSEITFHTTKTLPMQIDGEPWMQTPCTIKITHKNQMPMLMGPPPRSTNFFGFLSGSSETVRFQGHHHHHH
T1 sequence (Q13574 other isoform, or with tags, fused parts or gaps): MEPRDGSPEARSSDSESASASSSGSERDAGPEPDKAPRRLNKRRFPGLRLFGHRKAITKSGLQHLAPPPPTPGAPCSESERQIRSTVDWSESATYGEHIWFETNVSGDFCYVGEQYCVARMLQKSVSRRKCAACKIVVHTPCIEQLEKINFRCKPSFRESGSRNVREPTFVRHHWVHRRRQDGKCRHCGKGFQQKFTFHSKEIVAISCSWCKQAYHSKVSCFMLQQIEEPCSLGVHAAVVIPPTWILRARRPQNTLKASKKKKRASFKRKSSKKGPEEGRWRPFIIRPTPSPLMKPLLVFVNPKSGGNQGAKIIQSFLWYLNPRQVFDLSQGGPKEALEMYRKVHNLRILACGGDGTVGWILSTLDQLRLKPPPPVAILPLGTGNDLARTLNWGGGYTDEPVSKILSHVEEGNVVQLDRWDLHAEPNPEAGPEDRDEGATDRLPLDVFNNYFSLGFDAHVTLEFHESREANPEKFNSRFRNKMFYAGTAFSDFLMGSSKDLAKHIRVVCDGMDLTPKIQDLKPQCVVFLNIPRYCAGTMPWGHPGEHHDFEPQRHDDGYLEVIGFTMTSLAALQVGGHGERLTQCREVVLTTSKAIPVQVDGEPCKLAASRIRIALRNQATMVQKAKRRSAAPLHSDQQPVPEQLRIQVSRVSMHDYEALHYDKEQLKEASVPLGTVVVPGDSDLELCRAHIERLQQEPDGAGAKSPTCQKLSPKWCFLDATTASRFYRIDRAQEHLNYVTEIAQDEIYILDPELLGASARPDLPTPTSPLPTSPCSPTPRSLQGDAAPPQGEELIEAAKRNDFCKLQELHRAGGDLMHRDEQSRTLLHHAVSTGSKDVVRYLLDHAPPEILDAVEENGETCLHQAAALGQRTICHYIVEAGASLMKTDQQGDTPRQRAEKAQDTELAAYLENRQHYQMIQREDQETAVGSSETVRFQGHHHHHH

SMILES | IC50 (human DGKζ [2]) | IC50 (human DGKα [3]; [11]) | EC50 (naïve human CD8 T cells [4]; [14]) | IC50 (human DGKζ [5]) | IC50 (human DGKα [6]) | IC50 [7, 17] | also measured
CCC(c1ccc(F)cc1)N1CCN(c2c([N+](=O)[O-])c(=O)n(C)c3ccc(C#N)nc23)CC1 (racemic) [Example 32, 8-{4-[1-(4-fluorophenyl)propyl]piperazin-1-yl}-5-methyl-7-nitro-6-oxo-5,6-dihydro-1,5-naphthyridine-2-carbonitrile] | 9400 nM | 190 nM | – | – | – | – | IC50 [1, 10]: 360 nM; EC50 (naïve human CD8 T cells [4]; read-out: CD8 GLO normalized EC50, CellTiter-Glo CD8 T cell proliferation, normalized): 180 nM
Cn1c(=O)c([N+](=O)[O-])c(N2CCN(C(c3ccc(F)cc3)C3CC3)CC2)c2nc(C#N)ccc21 (racemic) [Example 49, 8-(4-(cyclopropyl(4-fluorophenyl)methyl)piperazin-1-yl)-5-methyl-7-nitro-6-oxo-5,6-dihydro-1,5-naphthyridine-2-carbonitrile] | > 240000 nM | – | 170 nM | – | – | – | IC50 [1, 12]: 1700 nM; IC50 (human DGKα [3]; [13]): 180 nM
C#CCn1c(=O)c([N+](=O)[O-])c(N2CCN(C(c3ccc(F)cc3)c3ccccc3OC)CC2)c2nc(C#N)ccc21 (racemic) [Example 129, 8-(4-((4-fluorophenyl)(2-methoxyphenyl)methyl)piperazin-1-yl)-7-nitro-6-oxo-5-(prop-2-yn-1-yl)-5,6-dihydro-1,5-naphthyridine-2-carbonitrile] | 180 nM | 4200 nM | 60 nM | – | – | – | IC50 [1, 12]: 870 nM
COc1cc(F)ccc1C(c1ccc(F)cc1)N1CCN(c2c(C#N)c(=O)n(C)c3ccc(C#N)nc23)CC1 (racemic) [Example 405, 8-{4-[(4-fluoro-2-methoxyphenyl)(4-fluorophenyl)methyl]piperazin-1-yl}-5-methy-6-oxo-5,6-dihydro-L5-naphthyridine-2,7-dicarbonitrile] | – | – | 20 nM | 860 nM | 560 nM | – | –
C#CCn1c(=O)c([N+](=O)[O-])c(N2CCN(C(c3ccc(F)cc3)c3ccccc3O)CC2)c2nc(C#N)ccc21 (single isomer, unassigned) [Example 133, 8-(4-((4-fluorophenyl)(2-hydroxyphenyl)methyl)piperazin-1-yl)-7-nitro-6-oxo-5-(prop-2-yn-1-yl)-5,6-dihydro-1,5-naphthyridine-2-carbonitrile] | 140 nM | – | – | – | – | – | IC50 [1, 15]: 280 nM; IC50 [7, 16]: 60 nM; IC50 (human DGKα [3]; [13]): 3300 nM
C#CCn1c(=O)c([N+](=O)[O-])c(N2CCN(C(c3ccc(F)cc3)c3ccccc3O)CC2)c2nc(C#N)ccc21 (single isomer, unassigned) [Example 134, 8-(4-((4-fluorophenyl)(2-hydroxyphenyl)methyl)piperazin-1-yl)-7-nitro-6-oxo-5-(prop-2-yn-1-yl)-5,6-dihydro-1,5-naphthyridine-2-carbonitrile] | 4200 nM | 31000 nM | – | – | – | – | IC50 [1, 15]: 600 nM; IC50 [7, 16]: 1140 nM
Cn1c(=O)c(C#N)c(N2CCN(Cc3ccc(O)cc3)CC2)c2nc(Cl)ccc21 [Example 362, 6-chloro-4-{4-[(4-hydroxyphenyl)methyl]piperazin-1-yl}-1-methyl-2-oxo-1,2-dihydro-1,5-naphthyridine-3-carbonitrile] | > 240000 nM | 69 nM | – | – | – | 10000 nM | IC50 [1, 10]: 8370 nM; IC50 [8]: > 100000 nM
Cc1cccc(CN2CCN(c3c(C#N)c(=O)n(C)c4ccc(Cl)nc34)CC2)c1 [Example 385, 6-chloro-1-methyl-1-{4-4[(3-methylphenyl)methyl]piperazin-1-yl}-2-oxo-1,2-dihydro-1,5-naphthyridine-3-carbonitrile] | 150000 nM | 350 nM | – | – | – | 4090 nM | IC50 [1, 10]: 60 nM
CC(c1ccc(F)cc1)N1CCN(c2c(C#N)c(=O)n(C)c3ccc(Cl)nc23)CC1 (stereo not shown) [Example 387A, 6-chloro-4-{4-[1-(4-fluorophenyl)ethyl]piperazin-1-yl}-1-methyl-2-oxo-1,2-dihydro-1,5-naphthyridine-3-carbonitrile] | – | – | 10000 nM | – | – | – | IC50 [1, 12]: 10000 nM
COc1cc(F)ccc1C(c1ccc(F)cc1)N1CCN(c2cc(=O)n(C)c3ccc(C#N)nc23)CC1 (stereo not shown) [Example 392, 8-{4-[(4-fluoro-2-methoxyphenyl)(4-fluorophenyl)methyl]piperazin-1-yl}-5-methyl-6-oxo-5,6-dihydro-1,5-naphthyridine-2-carbonitrile] | – | – | – | 2300 nM | > 240000 nM | 1850 nM | EC50 (naïve human CD8 T cells [9]): 230 nM
Cn1c(=O)c([N+](=O)[O-])c(N2CCN([C@@H](c3ccccc3)c3ccc(Cl)cc3)CC2)c2nc(C#N)ccc21 [Example 399, 8-{4-[(S)-(4-chlorophenyl)(phenyl)methyl]piperazin-1-yl}-5-methyl-7-nitro-6-oxo-5,6-dihydro-1,5-naphthyridine-2-carbonitrile] | – | – | – | 160 nM | 6400 nM | 410 nM | EC50 (naïve human CD8 T cells [9]): 20 nM
Cn1c(=O)c(C#N)c(N2CCN([C@@H](c3ccccc3)c3ccc(Cl)cc3)CC2)c2nc(Br)ccc21 [Example 428, 6-bromo-4-{4-[(S)-(4-chlorophenyl)(phenyl)methyl]piperazin-1-yl}-1-methyl-2-oxo-1,2-dihydro-1,5-naphthyridine-3-carbonitrile] | – | – | – | 5200 nM | 10000 nM | 590 nM | EC50 (naïve human CD8 T cells [9]): 30 nM
